Laboratory results as given in patent US20260209219A1, “SUBSTITUTED TETRAHYDROPYRROLO-PYRIDINONE COMPOUNDS AND THEIR USE IN TREATING MEDICAL CONDITIONS” (Karuna Therapeutics, Inc., priority 2022, published 2026).

Legend:
[1] = biological target: T1, hM4 receptors (Homo sapiens, UniProt P08173); experiment: Human M4 PAM pERK assay; assay type: cell-based; conditions: CHO cells expressing hM4; with EC20 of acetylcholine (10 nM final)
T1 construct: expressed in transfected cells; host or cells: CHO cells
T1 sequence (P08173 1-479): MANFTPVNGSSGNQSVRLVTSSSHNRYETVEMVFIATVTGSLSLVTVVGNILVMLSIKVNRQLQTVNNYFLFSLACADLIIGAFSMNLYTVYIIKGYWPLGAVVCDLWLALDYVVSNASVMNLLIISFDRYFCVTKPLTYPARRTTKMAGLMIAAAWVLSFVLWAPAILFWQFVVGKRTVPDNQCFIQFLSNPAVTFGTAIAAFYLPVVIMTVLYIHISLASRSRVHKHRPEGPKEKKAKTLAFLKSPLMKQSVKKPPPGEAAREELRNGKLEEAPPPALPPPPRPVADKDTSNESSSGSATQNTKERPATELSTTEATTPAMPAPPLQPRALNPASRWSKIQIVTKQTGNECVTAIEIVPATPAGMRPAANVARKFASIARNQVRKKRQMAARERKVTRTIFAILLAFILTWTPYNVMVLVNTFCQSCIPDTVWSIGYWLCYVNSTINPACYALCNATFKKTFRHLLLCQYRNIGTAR
Experimental: (§1) Chinese hamster ovary (CHO) cells expressing either hM4 or rM4 receptors were frozen in assay ready vials (5×10^6 cells/vial) after bulking-up in culture. The day before an assay, vial(s) were thawed and cells seeded in 384 well white proxiplates at 1000/well for hM4 cells and at 2000/well for rM4 cells, in 10 μL of growth media (Hams/F12 with glutamax and 10% FCS) and incubated overnight at 37° C./5% CO2.
(§2) On the following morning, the growth media was removed by ‘flicking out’ over a bin, patting the inverted plate onto tissue, and then replacing with 10 μL of wash media (Hams/F12 with glutamax and 8 mM HEPES, NB: serum free). Then, the wash media was removed in the same way and replaced with 8 μL/well of the serum free media. Plates were then re-incubated for a further 4 hours at 37° C./5% CO2.
(§3) Compounds for testing were solubilized to 10 mM in DMSO and compound addition plates, consisting of ten-point concentration response curves (CRC) in duplicate points (10 μM top concentration, ½ log dilution series), were prepared by acoustic dispensing and the compound management group.
(§4) After the 4-hour incubation in serum free media, a 4 μL aliquot of the 3× compound solution containing an EC20 of acetylcholine (10 nM final concentration) was added to the cell plate using a 384 well plate to plate transfer. Then, the plate lid was replaced, and the cells incubated for 5 mins at 37° C./5% CO2. Following this final incubation, all cellular processes were stopped by the addition of 4 μL/well of lysis and blocking buffer and plates were incubated for 30 minutes at RT on an orbital shaker (gentle setting). Then, a final addition of 4 μL/well of antibody detection mix, containing both the Europium-Cryptate (donor) and d2 (acceptor) tagged detection components, was added followed by a further 2-hour incubation at RT, and then the plate was read using a TR-FRET (time resolved fluorescence resonance energy transfer) based protocol.

[2] = biological target: T2, rM4 receptors (Rattus norvegicus, UniProt P08485); experiment: Rat M4 PAM pERK assay; assay type: cell-based; conditions: CHO cells expressing rM4; with EC20 of acetylcholine (10 nM final)
T2 construct: expressed in transfected cells; host or cells: CHO cells
T2 sequence (P08485 1-478): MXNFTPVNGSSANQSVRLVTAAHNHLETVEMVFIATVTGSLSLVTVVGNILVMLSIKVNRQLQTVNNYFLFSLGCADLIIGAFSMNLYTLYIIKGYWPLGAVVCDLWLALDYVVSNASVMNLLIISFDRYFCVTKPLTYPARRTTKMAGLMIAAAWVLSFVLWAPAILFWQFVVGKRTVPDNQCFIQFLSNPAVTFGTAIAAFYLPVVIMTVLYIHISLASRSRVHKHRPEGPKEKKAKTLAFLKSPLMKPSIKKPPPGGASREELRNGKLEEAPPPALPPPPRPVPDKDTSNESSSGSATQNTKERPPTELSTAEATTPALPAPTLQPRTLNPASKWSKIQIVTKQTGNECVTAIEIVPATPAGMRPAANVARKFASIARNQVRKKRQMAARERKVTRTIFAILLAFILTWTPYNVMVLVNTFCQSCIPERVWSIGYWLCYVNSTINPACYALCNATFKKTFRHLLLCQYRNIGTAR
Experimental: as §1, §2, §3, §4

Row | EC50 [1] [nM] | EC50 [2] [nM] | Structure (SMILES)
1 | 100 to 500 | 100 to 500 | Cc1cc(=O)n(C)c2c1CN(C(=O)CC1CC1c1ccc(C(F)(F)F)cc1)C2 (single isomer, unassigned) [Compound I-7]
2 | < 100 | < 100 | Cc1c2c(n(C)c(=O)c1F)CN(C(=O)CC1CC1c1ccc(C(F)(F)F)cc1)C2 (stereo not shown) [Compound I-26]
